Test results taken from patent publication US9237750B2, “Ornidazole and related compounds for use as herbicides” (RAMOT AT TEL-AVIV UNIVERSITY LTD., priority 2012, dated 2016).

Experiments:
[1] = test system: Dunaliella salina; assay: Net O2 exchange (photosynthesis and respiration), O2 electrode; assay type: cell-based, Dunaliella salina (Chlorophyta)
Experimental: (§1) The cyanobacterium Anabaena PCC7120 was grown in BG-11 medium as was previously described (Marcus Y, et al., 2005. J Bacteriol 187, 4222-4228). The green eukaryotic alga Dunaliella salina was grown on a medium described by Ben-Amotz and Avron (Ben-Amotz A and Avron M 1983. Plant Physiol 72, 593-597), under 20 μmol photons m^−2 sec^−1 at 30° C. The aquatic plant Lemna was collected from an open pond at the Botanical garden of Tel Aviv University. Seedlings of Avena sterilis were grown in pots in a greenhouse. The marine diatom Phaeodactylum tricornutum was grown as described in Haimovich-Dayan et al. (Haimovich-Dayan M. et al. 2012. New Phytol 195:177-185).
(§2) The rate of net O2 exchange was determined using a Clark-type O2 electrode (Rank Brothers Ltd, UK). Fluorescent measurements (quantum yield, photochemical and non photochemical quenching) were determined using a modulated fluorometer (PAM, Walz, Germany) as described by Schreiber et al. (Schreiber U et al., 1986. fluorometer. Photosynth Res 10, 51-62) and Snir et al. (Snir A, et al., 2006. Photosynth Res 90, 233-242).
(§3) The algae Anabaena PCC7120 (Cyanobacteria), Dunaliella salina (Chlorophyta) and Phaeodactylum tricornutum (Diatoms) were each grown in its suitable medium as described hereinabove towards the mid logarithmic phase. 1 mM Ornidazole was then added to the medium for 5 min, and respiration and photosynthesis were measured for at least 10 min.

[2] = test system: Phaeodactylum tricornutum; assay: as above; assay type: cell-based, Phaeodactylum tricornutum (Diatoms)
Experimental: as §1, §2, §3

[3] = test system: Avena sterilis; assay: Photosynthetic quantum yield of immersed leaf blades (PAM fluorimeter); assay type: in vivo; conditions: 1 mM Ornidazole in water, 3.5 hours
Experimental: Leaves of Avena seedlings grown in a pot (still attached to the stem) were immersed in 1 mM Ornidazole for the indicated times. The photosynthetic quantum yield under various light intensities was determined with a PAM fluorimeter. The rate of net O2 exchange was determined using a Clark-type O2 electrode (Rank Brothers Ltd, UK). Fluorescent measurements (quantum yield, photochemical and non photochemical quenching) were determined using a modulated fluorometer (PAM, Walz, Germany) as described by Schreiber et al. (Schreiber U et al., 1986. fluorometer. Photosynth Res 10, 51-62) and Snir et al. (Snir A, et al., 2006. Photosynth Res 90, 233-242). Similar results were obtained by immersion of leaf blades of the weed Avena sterilis in 1 mM Ornidazole in water. After 3.5 hours of incubation the quantum yield of photosynthesis decreased by 50% under limiting light intensity and by 85% under saturating light intensity (FIG. 4).

[4] = molecular target: T1, Triose phosphate isomerase (Nostoc sp., UniProt Q8YP17); assay: Calvin cycle enzyme activity; assay type: biochemical, Anabaena; set-up: endogenous in cells; host or cells: Anabaena PCC7120 extract; conditions: 1 mM Ornidazole
T1 sequence (Q8YP17 1-241): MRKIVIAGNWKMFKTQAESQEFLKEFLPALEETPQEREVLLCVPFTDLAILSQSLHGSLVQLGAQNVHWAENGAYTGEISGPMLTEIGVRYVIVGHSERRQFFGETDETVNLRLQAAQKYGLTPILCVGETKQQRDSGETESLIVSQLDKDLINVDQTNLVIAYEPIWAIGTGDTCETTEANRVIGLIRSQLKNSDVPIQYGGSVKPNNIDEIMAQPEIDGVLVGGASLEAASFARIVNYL
Experimental: Rubisco was assayed as described by Marcus et al. (2005, ibid) and Snir et al. (2006, ibid). Phospho-ribulose kinase was assayed by conversion of phospho-ribulose to RuBP, which was determined by Rubisco dependent carboxylation with radiolabeled ^14CO2. Plant or cyanobacterial extract was incubated with medium containing 50 mM Hepes pH 8, 10 mM MgCl2, 20 mM NaH^14CO3, 1 mM DTT, 0.5 mM ribose-5-phosphate, ribose-5-phosphate isomerase and activated Rubisco. Phosphoglycerate kinase, GAPDH, FBPase and SBPase were determined as described by Leegood (Leegood R C., 1990. In: Methods in plant biochemistry, Vol 3, pp 15-37, Academic Press).
However, analysis of Ornidazole effect on various enzymes of the Calvin cycle in Anabaena including ribulose-bisphosphate carboxylase/oxygenase (Rubisco), phosphoglycerate kinase, glyceraldehyde-3-phosphate dehydrogenase (GAPDH), triose-phosphate isomerase, aldolase, fructose and sedoheptulose bisphosphatase and phosphoribulose kinase, has shown inhibition of GAPDH and triose-phosphate isomerase (Table 2).

[5] = molecular target: T1, Triose phosphate isomerase; assay: Enzyme activity in lysed Anabaena spheroplasts treated with 0 to 2 mM Ornidazole; assay type: cell-based, Anabaena PCC7120; set-up: endogenous in cells; host or cells: Anabaena PCC7120 spheroplasts, lysed after treatment; conditions: 30° C.
Experimental: Filaments of Anabaena PCC7120 were incubated in a medium containing: 0.5 M sucrose, 10 mM MgCl2, 5 mM Potassium Phosphate, 10 mM MES buffer pH 6.9, 1% (weight/volume) BSA and 1 mg/ml Lysozyme for 30 to 60 min. at 30° C. The spheroplasts yield was monitored by lysis in hypotonic solution. The spheroplasts were spun down and resuspended in a medium containing 0.4 M Mannitol, 10 mM MgCl2, 5 mM Potassium Phosphate and 20 mM Hepes buffer pH 8.0.
To further examine the effect of Ornidazole on these enzymes, the rate of photosynthesis of Anabaena spheroplasts, incubated in a spheroplast medium under saturating light intensity and CO2 concentrations in the presence of 0 to 2 mM Ornidazole at 30° C. was determined, using an O2 electrode. GAPDH and triose-phosphate isomerase activities were determined spectrophotometrically in the spheroplasts upon lysis (200 to 300 μg chlorophyll) using a reaction medium as described in the Materials and Methods section hereinabove.
A clear correlation was found between the reduced activity of triose phosphate isomerase and the declined rate of photosynthesis.

[6] = Dunaliella salina, 1 mM Ornidazole added for 5 min
[7] = Phaeodactylum tricornutum, 1 mM Ornidazole added for 5 min

Cc1ncc([N+](=O)[O-])n1CC(O)CCl (stereo not shown) [Ornidazole, 1-chloro-3-(2-methyl-5-nitro-1H-imidazol-1-yl)propan-2-ol]
Photosynthesis [1, 6]: 17.88 μmol O2 mg^−1 chl h^−1
Respiration [1, 6]: −3.13 μmol O2 mg^−1 chl h^−1
inhibition at 1000 µM ([1]; Dunaliella salina, Dunaliella, 1 mM, read-out: inhibition of respiration rate): 30 to 35%
effect on photosynthesis ([1]; Dunaliella, higher concentrations (than 1 mM) or longer incubation time): abolished photosynthesis
Photosynthesis [2, 7]: −4.33 μmol O2 mg^−1 chl h^−1
Respiration [2, 7]: −67.14 μmol O2 mg^−1 chl h^−1
effect on respiration rate ([2]; Phaeodactylum, 1 mM): stimulated the respiration rate
effect on photosynthesis ([2]; Phaeodactylum, higher concentrations (than 1 mM) or longer incubation time): abolished photosynthesis
decrease of quantum yield of photosynthesis ([3]; limiting light intensity): 50%
decrease of quantum yield of photosynthesis ([3]; saturating light intensity): 85%
Activity ([4]; Triose phosphate isomerase): 0 μmol × mg^−1chl × h^−1
inhibition at 1000 µM ([4]; triose-phosphate isomerase): 98 to 100%
inhibition of triose phosphate isomerase compared to GAPDH [5]: inhibited at lower concentrations of Ornidazole and in a concentration-dependent manner
